The values below come from paper PMC12037037 (Proceedings of the National Academy of Sciences of the …, 2025).

Data set [1] has as its target 5-HT2 receptors (5-HT2A, 5-HT2B, 5-HT2C). The data set can be described thus: Competitive radioligand binding assays at 5-HT2 receptors. The following applies: read-out: Ki range, entire family of 5-HT2 receptors; free base.
Description: Radioligand binding (RLB) (top) and IP1 functional assays
(bottom) for 5-HT2A (A), 5-HT2B (B), and 5-HT2C (C) receptors. (D) The PathHunter® β-arrestin assay was used to
HT2A receptors. Data represent the mean ± SEM of 2–6 biological replicates (performed in duplicate), with the sole
exception that the β-arrestin data for (–)-JRT represents a single biological replicate averaged from 2 technical replicates.
Drugs. Many of the drugs used in these studies were purchased from commercial sources including (+)-amphetamine sulfate (Sigma Aldrich, 1180004), ketamine hydrochloride (Spectrum, K1068), and ketanserin (APExBIO, B2248).
JRT were synthesized in-house and judged to be analytically pure based on NMR and LC-MS data. For cell culture experiments, VEH = 0.1% (agonist studies) or 0.2% (antagonist studies) molecular biology grade dimethyl sulfoxide (Sigma-Aldrich).
Fumarate salts of (+)-JRT and (–)-JRT were used for all biological studies unless noted otherwise.
The target in another data set is T1, human 5-HT2B receptor (Homo sapiens, UniProt P41595).
T1 construct: host or cells: CHO
The data set can be described thus: IP1 functional assay (5-HT2BR). The class given is cell-based.

Data set [2] has as its target T2, 5-HT2A receptors (Gi1, Gi3 activation) (Homo sapiens, UniProt P28223).
T2 construct: expressed in transfected cells; host or cells: HEK293T (transient)
The data set can be described thus: BRET-based assays of Gi1 and Gi3 activation. Type of data set: cell-based. (Bioluminescence resonance energy transfer reports proximity on the nanometre scale.)

The target of data set [3] is T3, human ether-a-go-go related gene (hERG) channels (Homo sapiens, UniProt Q12809).
T3 construct: Apconix
Put plainly: hERG inhibition assay (Apconix). Type of data set: biochemical. How it is done: (§1) (1 picture or pasted object on this page, not shown here)
(§2) Comparison Between WT and S242A5.46 psychLight Variants. Activity in WT and S242A5.46 mutant forms of PsychLight was quantified by deriving ligand activity ratios (log(Emax/EC50)). […]
(§3) and (+)-JRT were fit to a log(agonist) vs. response (three parameters) curve. The Emax/EC50 analysis was performed as previously described in detail by others (16):
(§4) Response = Basal + E!"# − Basal where Emax and Basal represent the top and bottom asymptotes of the curve fit, respectively; EC50 represents the concentration that gives a response halfway between Emax and Basal; and Log[A] is the logarithm of the agonist concentration. Then, ligand activity ratios, log(Emax/EC50) were calculated for each test ligand and statistical comparisons made between each other and between genotypes using a two-way ANOVA and significant interaction effects followed by a Šídák's multiple comparisons test.
(§5) ADME and hERG Inhbition Assays. […]
(§6) Briefly, 96 well plates were coated with poly-D-lysine and approximately 15,000 cells/well. […] Images were analyzed using the Simple Neurite Tracer and Sholl analysis plug-ins for ImageJ Fiji (version 1.51N). […] All images were taken and analyzed by an experimenter blinded to treatment conditions.
(§7) Spinogenesis Assays Using Cultured Rat Cortical Neurons. […] Images were analyzed using ImageJ Fiji (version 1.51N). […]

The nature of data set [4]: ADME assays (Eurofins, ChemPartner). The class given is in vitro ADME. The conditions noted are these: overall statement. How it is done:
as §1, §2, §3, §4, §5, §6, §7

The subject of data set [5] is E18 rat embryonic cortical neurons (DIV18-19). Put plainly: Spinogenesis assay using cultured rat cortical neurons. Type of data set: cell-based.
For data set [6], the system named is Thy1-EGFP mice, layer 2/3 of the mPFC. Put plainly: In vivo spinogenesis after chronic corticosterone administration. The conditions noted are these: 24 h, mean ± SEM.
Protocol: In Vivo Spinogenesis after chronic corticosterone administration. Male and female Thy1-EGFP mice were given 1 week to acclimate to the new vivarium, then transferred to new cages (individually housed). Once individually housed, the mice were administered corticosterone (20 mg/kg; IP) in DMSO (2 mL/kg) or gently handled daily for 20 days. On day 21, mice were treated with VEH (saline) or (+)-JRT (1 mg/kg; IP). After 24 h, mice were anesthetized with isoflurane and transcardially perfused with paraformaldehyde (PFA, 4% in PBS, 7.4 pH). After extraction of the brains, samples were fixed in 4% PFA at 4° C overnight. The brains were cryo-protected by immersion in a 15% sucrose solution (15% sucrose in PBS w/v) overnight. Next, samples were placed in 30% sucrose solution (30% sucrose in PBS w/v) for at least 1 day. Samples were then embedded in optimal cutting temperature compound (OCT), sliced into 100 µm coronal sections using a cryostat, and mounted on slides which were left in the dark overnight to dry. Coverslips were mounted onto microscope slides using ProLong Gold. Slides were imaged on a Nikon HCA Spinning Disc confocal microscope equipped with a 100x/NA 1.45 oil objective. Images of dendrites and dendritic spines within layer 2/3 of the mPFC were captured and manually counted by a trained experimenter blinded to treatment conditions.
For the next data set, the system named is C57BL/6J mice. Put plainly: Head-twitch response (HTR) assay. The class given is in vivo. The conditions noted are these: (+)-JRT 1 mg/kg IP pretreatment 15 min + LSD 0.2 mg/kg IP; mean ± SEM.
In another data set the test system is male C57BL/6J mice. Put plainly: Head-twitch antagonism of an LSD dose response (Transpharmation). Type of data set: in vivo. The following applies: +JRT PreTx (1 mg/kg IP, 30 min prior) then VEH (1% DMSO); -JRT 0.7 ± 0.3.
The next data set deals with male Long Evans rats. The data set can be described thus: Probabilistic reward task (PRT) under chronic cold-water stress. Type of data set: in vivo. The following applies: for Response bias (log b) (Figure 6G): JRT 1 mg/kg.

pKi: −log10 of the molar value. “Also recorded” adds a separate entry of the source.

T3 sequence (Q12809 whole entry): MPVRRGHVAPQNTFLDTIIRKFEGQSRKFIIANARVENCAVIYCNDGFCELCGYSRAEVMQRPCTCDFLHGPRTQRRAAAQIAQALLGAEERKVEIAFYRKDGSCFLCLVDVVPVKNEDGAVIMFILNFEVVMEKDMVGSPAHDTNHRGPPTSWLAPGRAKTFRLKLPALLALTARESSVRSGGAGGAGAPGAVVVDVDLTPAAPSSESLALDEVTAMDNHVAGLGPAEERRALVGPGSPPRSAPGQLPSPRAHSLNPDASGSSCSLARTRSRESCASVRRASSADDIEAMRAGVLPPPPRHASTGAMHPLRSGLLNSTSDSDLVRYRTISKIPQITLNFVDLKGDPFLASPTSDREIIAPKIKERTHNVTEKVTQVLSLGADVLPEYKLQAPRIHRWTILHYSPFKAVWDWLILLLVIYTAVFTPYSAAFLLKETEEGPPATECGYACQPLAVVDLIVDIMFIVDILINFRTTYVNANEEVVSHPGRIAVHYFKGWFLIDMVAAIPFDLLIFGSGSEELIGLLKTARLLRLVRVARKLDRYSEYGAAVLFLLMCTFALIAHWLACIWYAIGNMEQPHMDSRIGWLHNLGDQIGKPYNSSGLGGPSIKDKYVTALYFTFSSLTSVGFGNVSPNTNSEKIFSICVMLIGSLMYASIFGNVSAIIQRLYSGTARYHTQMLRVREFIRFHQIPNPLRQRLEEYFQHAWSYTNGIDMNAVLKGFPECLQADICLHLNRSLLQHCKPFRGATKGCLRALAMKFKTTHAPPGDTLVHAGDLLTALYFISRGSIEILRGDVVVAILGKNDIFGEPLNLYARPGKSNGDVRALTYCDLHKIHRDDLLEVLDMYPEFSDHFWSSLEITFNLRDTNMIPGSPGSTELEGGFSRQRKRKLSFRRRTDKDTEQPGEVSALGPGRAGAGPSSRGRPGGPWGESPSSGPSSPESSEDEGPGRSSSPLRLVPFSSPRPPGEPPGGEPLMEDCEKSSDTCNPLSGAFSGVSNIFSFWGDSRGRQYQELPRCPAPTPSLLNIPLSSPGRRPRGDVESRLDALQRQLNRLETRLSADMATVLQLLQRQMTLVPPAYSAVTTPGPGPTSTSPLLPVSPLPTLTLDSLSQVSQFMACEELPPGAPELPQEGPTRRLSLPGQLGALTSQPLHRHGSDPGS
T1 sequence (P41595 whole entry): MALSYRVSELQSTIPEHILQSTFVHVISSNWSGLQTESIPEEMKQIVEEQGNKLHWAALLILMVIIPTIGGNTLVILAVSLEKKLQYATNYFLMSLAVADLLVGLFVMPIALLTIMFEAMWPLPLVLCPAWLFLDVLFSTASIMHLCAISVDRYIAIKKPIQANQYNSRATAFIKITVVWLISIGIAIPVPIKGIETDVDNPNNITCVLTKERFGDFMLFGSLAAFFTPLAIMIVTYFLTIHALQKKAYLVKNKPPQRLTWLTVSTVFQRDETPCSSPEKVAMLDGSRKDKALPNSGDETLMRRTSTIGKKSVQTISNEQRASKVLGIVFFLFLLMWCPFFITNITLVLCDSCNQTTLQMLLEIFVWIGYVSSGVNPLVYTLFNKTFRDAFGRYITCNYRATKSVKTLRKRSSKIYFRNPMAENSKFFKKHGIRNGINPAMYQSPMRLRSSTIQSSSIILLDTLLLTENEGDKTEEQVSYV
T2 sequence (P28223 whole entry): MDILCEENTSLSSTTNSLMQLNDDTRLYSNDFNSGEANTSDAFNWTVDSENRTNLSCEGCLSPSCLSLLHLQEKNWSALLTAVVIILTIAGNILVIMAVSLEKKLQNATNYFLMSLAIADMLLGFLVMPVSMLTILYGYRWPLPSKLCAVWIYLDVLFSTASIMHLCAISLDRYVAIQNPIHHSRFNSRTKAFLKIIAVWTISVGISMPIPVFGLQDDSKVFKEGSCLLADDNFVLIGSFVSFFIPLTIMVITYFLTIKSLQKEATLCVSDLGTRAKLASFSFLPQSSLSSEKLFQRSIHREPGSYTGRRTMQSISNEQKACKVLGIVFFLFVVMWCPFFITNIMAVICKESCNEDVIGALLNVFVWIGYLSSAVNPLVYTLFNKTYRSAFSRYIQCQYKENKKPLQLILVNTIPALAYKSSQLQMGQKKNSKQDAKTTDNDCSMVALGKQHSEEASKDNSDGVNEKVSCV
Protocol for human 5-HT2B receptor: IP1 Assay (5-HT2AR and 5-HT2CR). The 5-HT2AR and 5-HT2CR IPOne HTRF assays were performed at Epics
Therapeutics S.A. (Belgium, FAST-0505I) using conventional methods. Experiments were performed using the free bases
of (+)-JRT and (–)-JRT. Briefly, CHO-K1 cells expressing human recombinant 5-HT2AR grown to mid-log phase in culture
media without antibiotics were detached with PBS-EDTA, centrifuged, and resuspended in medium without antibiotics
buffer. Then, 20,000 cells were distributed in a 96-well plate and incubated overnight at 37 °C with 5% CO2. For agonist
were added to each well. The plate was incubated for 60 min at 37 °C with 5% CO2. After addition of the lysis buffer containing
IP1-d2 and anti-IP1 cryptate detection reagents, plates were incubated for 1 h at room temperature and fluorescence ratios
were measured according to the manufacturer’s specifications using the HTRF kit.
IP1 Assay (5-HT2BR). […]
Following incubation, the cells are lysed and the fluorescence acceptor (D2-
labeled IP1) and fluorescence donor (anti-IP1 antibody labeled with europium cryptate) were added. […]
temperature, the fluorescence transfer was measured at lex = 337 nm and lem = 620 and 665 nm using a microplate
reader (Envision, Perkin Elmer). The IP1 concentration was determined by dividing the signal measured at 665 nm by that
measured at 620 nm (ratio). […]
Protocol for male C57BL/6J mice: Head-Twitch Response Assay. The HTR assay was performed using equal numbers of male and female C57BL/6J mice.
The mice were obtained from The Jackson Laboratory (Sacramento, CA) and were approximately 8 – 12 weeks old at the time of the experiments. After compound administration, animals were placed into an empty arena (40 cm x 40 cm) and filmed for 20 min. The arena was cleaned with 70% ethanol between trials.

In general, pKi refers to −log10 of the Ki, conventionally taken in molar units. Usually Emax stands for the greatest response seen or fitted, relative to the assay's reference. Regarding `CCN(CC)C(=O)[C@@H]1C=C2c3cccc4ccn(c34)C[C@H]2N(C)C1` [(+)-JRT], in [1], the pKi was 6.74 to 8.70. Also, on human 5-HT2B receptor, the Emax was found to be 48%. In addition, in [2], the “Gi activation following stimulation of 5-HT2A receptors” value was “does not activate”. Besides, the hERG channel inhibition entry in [3] was “does not inhibit hERG channels; also recorded: did not inhibit”. Besides, in [4], the ADME properties result is on record as “excellent”. In addition, in data set [5] (1 μM, 24 h, DIV19, compared to vehicle (P < 0.0001) and CLZ (P = 0.0005)), the “Dendritic spine growth in mature cortical cultures” value was “promoted dendritic spine growth”. In addition, in data set [5] (compound 1 μM), the “Effect of ketanserin (10 μM) pretreatment on compound-induced dendritic spine density” value was “blocks”. For the same compound, the “Dendritic spine density, layer 2/3 mPFC (Table S1, matches Fig. 4N)” value in data set [6] (GH (gentle handling) + JRT 1 mg/kg IP, GH VEH 12.17 ± 0.5278) is recorded as 11.36 ± 0.8451; in [6] (chronic CORT 20 d + JRT 1 mg/kg IP) it was 10.77 ± 0.5664. Moreover, the “Head-twitches over 20 min (Figure 5A Antagonism)” value with C57BL/6J mice came to 1.500 ± 0.3450. Also, in the data set on male C57BL/6J mice, the “Head-twitch response over 20 min (Figure S9)” value is on record as 3.9 ± 0.567. The “Persistence of the effect on response bias following a single dose” value in the data set on male Long Evans rats (1 mg/kg, continued daily cold-water stress) is listed as “at least 3 d”. In addition, the “Response bias (log b) (Figure 6G)” value in the data set on male Long Evans rats (Day 2, Day 1 0.131 ± 0.082) was 0.406 ± 0.069; with male Long Evans rats (Day 3, Day 1 0.131 ± 0.082), 0.474 ± 0.112; in the data set on male Long Evans rats (Day 11, Day 1 0.131 ± 0.082) it was 0.290 ± 0.061; with male Long Evans rats (Day 1 (stressed, before drug) 0.131 ± 0.082) it was 0.491 ± 0.071.
